According to patent publication US9889099B2, “Method and composition for enhancing milk production” (LAND O'LAKES, INC., priority 1999, dated 2018):
Marks after values point to notes of the source that are not given here.

Tested on: lactating cows
Experiment: Example 2: 3x3 Latin square feeding of lactating cows, control ration plus about 50 or 100 g sorbitol per day
Type: in vivo, Holstein cows
Conditions: for Milk Protein / Lactose / Total Solids / Dry Matter Intake / Milk Production: last 14 of 28 days
Text: In this example, fifteen Holstein cows (nine multiparous and six primiparous) averaging about sixty-five days in milk each, and thus in early lactation, were arranged in a 3×3 Latin square design, also known as the switch back design, that was replicated five times. Each cow was randomly allotted to the control ration treatment, to the first test ration treatment, or to the second test ration treatment. In the 3×3 Latin square design, each cow is cycled through each treatment, namely, the control ration treatment, the first test ration treatment, and the second test ration treatment. This permits each cow to act as a control for standardizing the testing differences observed between each treatment for each cow. Sufficient time between feeding treatments (between the control ration treatment, the first ration test treatment, and the second test ration treatment) was allowed to permit normalization of each cow before being switched to a different treatment. The cows were blocked by parity milk production, based upon the level of milk production by individual cows, after being in milk for forty-five days. After being blocked by parity milk production, the cows were randomly allotted to the control ration feeding, the first test ration feeding, or the second test ration feeding. The components of the control ration used in this example are shown in Table 5: The control ration was placed in the feeding troughs of the cattle once daily in the morning. When the first test ration was to be provided to the test cattle, sorbitol was top dressed and lightly mixed into the control ration in the feeding trough of each cow being supplied with the first test ration dosage of about 50 grams of sorbitol per cow per day, about one hour after the control ration was placed in the feeding trough. When the second test ration was to be provided to the test cattle, sorbitol was top dressed and lightly mixed into the control ration in the feeding trough of each cow being supplied with the second test ration dosage of about 100 grams of sorbitol per cow per day, about one hour after the control ration was placed in the feeding trough. Then, the control ration, the first test ration, and the second test ration were lightly mixed in front of the cows six times per day to encourage additional feed ingestion by the cattle. Leftover rations from the previous days feeding were collected and weighed from each feeding trough prior to feeding the test cattle the next day. The cows received a sufficient amount of the control ration to ensure that at least about ten weight percent, based upon the amount of control ration provided at the beginning of each day, remained per day for each test cow. The amount of sorbitol that was top dressed in the control ration to form the first test ration was adjusted upward to account for the excess of control ration provided to ensure that the cows ingested the first test ration dosage of about 50 grams of sorbitol per cow per day. Likewise, the amount of sorbitol that was top dressed in the control ration to form the second test ration was adjusted upward to account for the excess of control ration provided to ensure that the cows ingested the second test ration dosage of about 100 grams of sorbitol per cow per day. Feed refusals were measured daily, and water was supplied ad libitum. Each test cow received routine care and management consistent with appropriate recommendations in the Guide for the Care and Use of Agricultural Animals in Agricultural Research and Teaching (1st edition, March 1988). Each cow was milked three times daily and the weight of produced milk was recorded at each milking. The milk was sampled once per day (⅓ of the sample volume from each milking) and was analyzed for protein, fat, lactose, and total solids, in accordance with the property determination and characterization techniques presented above. […]

OC[C@@H](O)[C@@H](O)[C@H](O)[C@@H](O)CO [sorbitol]
Milk Protein (about 50 g sorbitol/day/cow, Block 1, control 2.23, P >0.10): 2.22 pounds/day/cow | Lactose (about 50 g sorbitol/day/cow, Block 1, control 3.99, P >0.10): 4.10 pounds/day/cow | Total Solids (about 50 g sorbitol/day/cow, Block 1, control 9.51, P >0.10): 9.77 pounds/day/cow | Dry Matter Intake (about 50 g sorbitol/day/cow, Block 1, control 45.0, P >0.10): 44.2 pounds/day/cow | Milk Protein (about 50 g sorbitol/day/cow, Block 2, control 2.13, P >0.10): 2.18 pounds/day/cow | Lactose (about 50 g sorbitol/day/cow, Block 2, control 3.72, P 0.07): 3.89^b pounds/day/cow | Total Solids (about 50 g sorbitol/day/cow, Block 2, control 8.95, P >0.10): 9.48 pounds/day/cow | Dry Matter Intake (about 50 g sorbitol/day/cow, Block 2, control 42.9, P 0.04): 45.3^b pounds/day/cow | Milk Production (about 50 g sorbitol/day/cow, Block 2, control 75.3, P 0.10): 78.0^b pounds/day/cow | Milk Protein (about 50 g sorbitol/day/cow, Block 3, control 2.62, P >0.10): 2.89 pounds/day/cow | Lactose (about 50 g sorbitol/day/cow, Block 3, control 4.32, P >0.10): 4.84 pounds/day/cow | Total Solids (about 50 g sorbitol/day/cow, Block 3, control 10.70, P >0.10): 11.53 pounds/day/cow | Dry Matter Intake (about 50 g sorbitol/day/cow, Block 3, control 54.4, P 0.10): 60.7^b pounds/day/cow | Milk Production (about 50 g sorbitol/day/cow, Block 3, control 89.0, P 0.28): 98.8 pounds/day/cow | Milk Protein (about 50 g sorbitol/day/cow, Block 4, control 2.83, P 0.08): 3.18^b pounds/day/cow | Lactose (about 50 g sorbitol/day/cow, Block 4, control 4.56, P 0.06): 4.88^b pounds/day/cow | Total Solids (about 50 g sorbitol/day/cow, Block 4, control 11.46, P 0.09): 12.35^b pounds/day/cow | Dry Matter Intake (about 50 g sorbitol/day/cow, Block 4, control 61.0, P >0.10): 62.6 pounds/day/cow | Milk Production (about 50 g sorbitol/day/cow, Block 4, control 97.6, P 0.07): 102.9^b pounds/day/cow | Milk Protein (about 50 g sorbitol/day/cow, Block 5, control 3.35, P >0.10): 3.39 pounds/day/cow | Lactose (about 50 g sorbitol/day/cow, Block 5, control 5.70, P 0.05): 5.86^b pounds/day/cow | Total Solids (about 50 g sorbitol/day/cow, Block 5, control 13.46, P >0.10): 13.83 pounds/day/cow | Dry Matter Intake (about 50 g sorbitol/day/cow, Block 5, control 65.1, P >0.10): 66.6 pounds/day/cow | Milk Production (about 50 g sorbitol/day/cow, Block 5, control 119.1, P 0.10): 122.4^b pounds/day/cow | Milk Protein (about 50 g sorbitol/day/cow, all cows, control 2.63, P >0.10): 2.77 pounds/day/cow | Lactose (about 50 g sorbitol/day/cow, all cows, control 4.46, P 0.04): 4.71^b pounds/day/cow | Total Solids (about 50 g sorbitol/day/cow, all cows, control 10.82, P 0.07): 11.39^b pounds/day/cow | Dry Matter Intake (about 50 g sorbitol/day/cow, all cows, control 53.7, P 0.05): 55.9^b pounds/day/cow | Milk Production (about 50 g sorbitol/day/cow, all cows, control 92.9, P 0.05): 97.5^b pounds/day/cow | Milk Protein (about 50 g sorbitol/day/cow, multiparous cows only, control 2.93, P 0.08): 3.15^b pounds/day/cow | Lactose (about 50 g sorbitol/day/cow, multiparous cows only, control 4.86, P 0.07): 5.19^b pounds/day/cow | Total Solids (about 50 g sorbitol/day/cow, multiparous cows only, control 11.87, P >0.10): 12.57 pounds/day/cow | Dry Matter Intake (about 50 g sorbitol/day/cow, multiparous cows only, control 60.2, P 0.09): 63.3^b pounds/day/cow | Milk Production (about 50 g sorbitol/day/cow, multiparous cows only, control 101.9, P 0.07): 108.0^b pounds/day/cow | Milk Protein (about 50 g sorbitol/day/cow, primiparous cows only, control 2.18, P >0.10): 2.20 pounds/day/cow | Lactose (about 50 g sorbitol/day/cow, primiparous cows only, control 3.85, P >0.10): 3.99 pounds/day/cow | Total Solids (about 50 g sorbitol/day/cow, primiparous cows only, control 9.23, P >0.10): 9.63 pounds/day/cow | Dry Matter Intake (about 50 g sorbitol/day/cow, primiparous cows only, control 44.0, P >0.10): 44.7 pounds/day/cow | Milk Production (about 50 g sorbitol/day/cow, primiparous cows only, control 79.5, P >0.10): 81.8 pounds/day/cow | Milk Protein (about 100 g sorbitol/day/cow, Block 1, control 2.23, P >0.10): 2.19 pounds/day/cow | Lactose (about 100 g sorbitol/day/cow, Block 1, control 3.99, P >0.10): 4.07 pounds/day/cow | Total Solids (about 100 g sorbitol/day/cow, Block 1, control 9.51, P >0.10): 9.94 pounds/day/cow | Dry Matter Intake (about 100 g sorbitol/day/cow, Block 1, control 45.0, P >0.10): 44.4 pounds/day/cow | Milk Production (about 100 g sorbitol/day/cow, Block 1, control 83.7, P >0.10): 85.2 pounds/day/cow | Milk Protein (about 100 g sorbitol/day/cow, Block 2, control 2.13, P >0.10): 2.12 pounds/day/cow | Lactose (about 100 g sorbitol/day/cow, Block 2, control 3.72, P 0.07): 3.82^ab pounds/day/cow | Total Solids (about 100 g sorbitol/day/cow, Block 2, control 8.95, P >0.10): 9.29 pounds/day/cow | Dry Matter Intake (about 100 g sorbitol/day/cow, Block 2, control 42.9, P 0.04): 42.6^ab pounds/day/cow | Milk Production (about 100 g sorbitol/day/cow, Block 2, control 75.3, P 0.10): 77.1^ab pounds/day/cow | Milk Protein (about 100 g sorbitol/day/cow, Block 3, control 2.62, P >0.10): 2.85 pounds/day/cow | Lactose (about 100 g sorbitol/day/cow, Block 3, control 4.32, P >0.10): 4.86 pounds/day/cow | Total Solids (about 100 g sorbitol/day/cow, Block 3, control 10.70, P >0.10): 11.62 pounds/day/cow | Dry Matter Intake (about 100 g sorbitol/day/cow, Block 3, control 54.4, P 0.10): 60.1^ab pounds/day/cow | Milk Production (about 100 g sorbitol/day/cow, Block 3, control 89.0, P 0.28): 99.0 pounds/day/cow | Milk Protein (about 100 g sorbitol/day/cow, Block 4, control 2.83, P 0.08): 3.01^ab pounds/day/cow | Lactose (about 100 g sorbitol/day/cow, Block 4, control 4.56, P 0.06): 4.57^ab pounds/day/cow | Total Solids (about 100 g sorbitol/day/cow, Block 4, control 11.46, P 0.09): 11.01^ab pounds/day/cow | Dry Matter Intake (about 100 g sorbitol/day/cow, Block 4, control 61.0, P >0.10): 61.2 pounds/day/cow | Milk Production (about 100 g sorbitol/day/cow, Block 4, control 97.6, P 0.07): 95.9^ab pounds/day/cow | Milk Protein (about 100 g sorbitol/day/cow, Block 5, control 3.35, P >0.10): 3.36 pounds/day/cow | Lactose (about 100 g sorbitol/day/cow, Block 5, control 5.70, P 0.05): 5.78^ab pounds/day/cow | Total Solids (about 100 g sorbitol/day/cow, Block 5, control 13.46, P >0.10): 13.78 pounds/day/cow | Dry Matter Intake (about 100 g sorbitol/day/cow, Block 5, control 65.1, P >0.10): 65.8 pounds/day/cow | Milk Production (about 100 g sorbitol/day/cow, Block 5, control 119.1, P 0.10): 121.0^ab pounds/day/cow | Milk Protein (about 100 g sorbitol/day/cow, all cows, control 2.63, P >0.10): 2.71 pounds/day/cow | Lactose (about 100 g sorbitol/day/cow, all cows, control 4.46, P 0.04): 4.62^ab pounds/day/cow | Total Solids (about 100 g sorbitol/day/cow, all cows, control 10.82, P 0.07): 11.12^ab pounds/day/cow | Dry Matter Intake (about 100 g sorbitol/day/cow, all cows, control 53.7, P 0.05): 54.8^ab pounds/day/cow | Milk Production (about 100 g sorbitol/day/cow, all cows, control 92.9, P 0.05): 95.6^ab pounds/day/cow | Milk Protein (about 100 g sorbitol/day/cow, multiparous cows only, control 2.93, P 0.08): 3.07^ab pounds/day/cow | Lactose (about 100 g sorbitol/day/cow, multiparous cows only, control 4.86, P 0.07): 5.07^ab pounds/day/cow | Total Solids (about 100 g sorbitol/day/cow, multiparous cows only, control 11.87, P >0.10): 12.13 pounds/day/cow | Dry Matter Intake (about 100 g sorbitol/day/cow, multiparous cows only, control 60.2, P 0.09): 62.3^ab pounds/day/cow | Milk Production (about 100 g sorbitol/day/cow, multiparous cows only, control 101.9, P 0.07): 105.3^ab pounds/day/cow | Milk Protein (about 100 g sorbitol/day/cow, primiparous cows only, control 2.18, P >0.10): 2.16 pounds/day/cow | Lactose (about 100 g sorbitol/day/cow, primiparous cows only, control 3.85, P >0.10): 3.95 pounds/day/cow | Total Solids (about 100 g sorbitol/day/cow, primiparous cows only, control 9.23, P >0.10): 9.62 pounds/day/cow | Dry Matter Intake (about 100 g sorbitol/day/cow, primiparous cows only, control 44.0, P >0.10): 43.5 pounds/day/cow | Milk Production (about 100 g sorbitol/day/cow, primiparous cows only, control 79.5, P >0.10): 81.2 pounds/day/cow | improvement of milk production rate versus cows fed only the control ration (first test ration, about 50 g sorbitol per day, all cows): 4.6 pounds per day per cow | improvement of milk production rate versus cows fed only the control ration (second test ration, about 100 g sorbitol per day, all cows): 2.7 pounds per day per cow
